According to the supplement of paper PMC10307832:

Tests used:
Assay in all cases: relative viability (nuclei count vs DMSO), 5 days (fraction); higher = more cells survive
Mirin + Linsitinib = compound: N=C1NC(=O)/C(=C/c2ccc(O)cc2)S1 [Mirin] + C[C@]1(O)C[C@@H](c2nc(-c3ccc4ccc(-c5ccccc5)nc4c3)c3c(N)nccn32)C1 [Linsitinib] (partner 1 µM)
Method in brief: (§1)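 Lung cancer cell lines were pin-tool dosed in 1536-well plates on the day after seeding, with either a lone drug or a fixed anchor-drug dose plus five library-drug doses (not always all listed) in √10 steps. Nuclei were counted on 4× images after 5 days. Relative viability is the ratio of treated-well to vehicle-well nuclei counts, with each value a median of duplicate plates.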

[1] = compound: CCn1c(-c2nonc2N)nc2cnc(Oc3cccc(NC(=O)c4ccc(OCCN5CCOCC5)cc4)c3)cc21 + C[C@]1(O)C[C@@H](c2nc(-c3ccc4ccc(-c5ccccc5)nc4c3)c3c(N)nccn32)C1 [Linsitinib] (partner 1 µM)
Method in brief: as §1

[2] = compound: CCn1c(-c2nonc2N)nc2cnc(Oc3cccc(NC(=O)c4ccc(OCCN5CCOCC5)cc4)c3)cc21 + O=C(CCCCCCC(=O)Nc1ccccc1)NO [Vorinostat] (partner 1 µM)
Method in brief: as §1

[3] = compound: CCn1c(-c2nonc2N)nc2cnc(Oc3cccc(NC(=O)c4ccc(OCCN5CCOCC5)cc4)c3)cc21 + CC(=O)c1c(C)c2cnc(Nc3ccc(N4CCNCC4)cn3)nc2n(C2CCCC2)c1=O [Palbociclib] (partner 0.5 µM)
Method in brief: as §1

Cell Line	relative viability (Mirin + Linsitinib; first compound 0.25 µM)	relative viability (Mirin + Linsitinib; first compound 0.7906 µM)	relative viability (Mirin + Linsitinib; first compound 2.5 µM)	relative viability (Mirin + Linsitinib; first compound 7.906 µM)	relative viability (Mirin + Linsitinib; first compound 25 µM)	relative viability ([1]; first compound 0.04 µM)	relative viability ([1]; first compound 0.1265 µM)	relative viability ([1]; first compound 0.4 µM)	relative viability ([1]; first compound 1.265 µM)	relative viability ([1]; first compound 4 µM)	relative viability ([2]; first compound 0.04 µM)	relative viability ([2]; first compound 0.1265 µM)	relative viability ([2]; first compound 0.4 µM)	relative viability ([2]; first compound 1.265 µM)	relative viability ([2]; first compound 4 µM)	relative viability ([3]; first compound 0.04 µM)	relative viability ([3]; first compound 0.1265 µM)	relative viability ([3]; first compound 0.4 µM)	relative viability ([3]; first compound 1.265 µM)	relative viability ([3]; first compound 4 µM)
SW 1573	0.815	0.728	0.79	0.731	0.648	0.905	0.744	0.833	0.479	0.342	0.966	0.534	0.37	0.304	0.237	0.454	0.355	0.349	0.206	0.211
NCI-H1975	0.925	0.911	1.07	0.989	1.04	0.833	0.65	0.895	0.385	0.293	0.666	0.623	0.554	0.37	0.273	0.476	0.446	0.273	0.23	0.474
SK-LU-1	1.14	1.15	1.17	0.74	0.566	1.17	0.861	0.906	0.439	0.423	0.895	0.654	0.593	0.422	0.42	0.434	0.368	0.337	0.275	0.295
NCI-H460	0.809	0.759	0.764	0.649	0.474	1.35	0.794	0.513	0.144	0.135	0.952	0.729	0.471	0.189	0.107	0.213	0.126	0.101	0.056	0.073
LCLC-103H	1.12	1.11	1.08	1.22	1.13	1.12	1.07	0.902	1.05	1.03	0.921	0.8	0.55	0.537	0.512	0.478	0.464	0.485	0.429	0.518
HCC-78	0.537	0.585	0.519	0.445	0.475	0.673	0.498	0.551	0.664	0.621	0.43	0.42	–	0.505	0.638	0.446	0.445	0.525	0.533	0.452
NCI-H1915	1.12	–	1.12	1.06	1.19	1.16	1.11	1.07	1.07	1.06	0.507	0.52	0.472	0.244	0.225	0.522	0.524	0.516	0.386	0.376
